# Measurements from ChEMBL document CHEMBL3797039, “Bcl-2/MDM2 Dual Inhibitors Based on Universal Pyramid-Like α-Helical Mimetics” (J Med Chem, 2016).
# Activity calls are given as the source filed them. No cut-off for these calls is given here.
# Columns and labels:
# [1] = target: T1, Induced myeloid leukemia cell differentiation protein Mcl-1 (Homo sapiens, UniProt Q07820); experiment: Displacement of FAM-Bid peptide from N-terminal 8x His-tagged MCl-1 (unknown origin) expressed in Escherichia coli BL21 (DE3) after 30 mins by fluorescence polarization assay
# [2] = target: T2, Apoptosis regulator Bcl-2 (Homo sapiens, UniProt P10415); experiment: Displacement of FAM-Bid peptide from N-terminal 8x His-tagged Bcl-2 (unknown origin) expressed in Escherichia coli BL21 (DE3) after 30 mins by fluorescence polarization assay
# [3] = Cell cycle arrest in human HCT116 p53+/+ cells assessed as accumulation at <G1 phase at 5 uM after 24 hrs by propidium iodide staining-based flow cytometric method (reference value: 0.3%); format: functional; settings: HCT-116
# [4] = Cell cycle arrest in human HCT116 p53-/- cells assessed as accumulation at G1 phase at 10 uM after 24 hrs by propidium iodide staining-based flow cytometric method (reference value: 28%); format: functional; settings: HCT-116
# [5] = Cell cycle arrest in human HCT116 p53-/- cells assessed as accumulation at <G1 phase at 10 uM after 24 hrs by propidium iodide staining-based flow cytometric method (reference value: 0.6%); format: functional; settings: HCT-116
# [6] = Cell cycle arrest in human HCT116 p53+/+ cells assessed as accumulation at G2/M phase at 5 uM after 24 hrs by propidium iodide staining-based flow cytometric method (reference value: 26%); format: functional; settings: HCT-116
# [7] = Cell cycle arrest in human HCT116 p53+/+ cells assessed as accumulation at S phase at 5 uM after 24 hrs by propidium iodide staining-based flow cytometric method (reference value: 42%); format: functional; settings: HCT-116
# [8] = Cell cycle arrest in human HCT116 p53+/+ cells assessed as accumulation at G1 phase at 5 uM after 24 hrs by propidium iodide staining-based flow cytometric method (reference value: 31%); format: functional; settings: HCT-116
# [9] = Cell cycle arrest in human HCT116 p53-/- cells assessed as accumulation at S phase at 10 uM after 24 hrs by propidium iodide staining-based flow cytometric method (reference value: 36%); format: functional; settings: HCT-116
# [10] = Cell cycle arrest in human HCT116 p53-/- cells assessed as accumulation at G2/M phase at 10 uM after 24 hrs by propidium iodide staining-based flow cytometric method (reference value: […]%); format: functional; settings: HCT-116
# [11] = target: T2, Apoptosis regulator Bcl-2; experiment: Inhibition of BCl-2/Bim interaction in human DMS53 cells harboring p53 mutant at 5 to 10 uM after 12 hrs by immunoprecipitation method; format: cell-based; settings: DMS-53
# [12] = target: T2, Apoptosis regulator Bcl-2; experiment: Inhibition of BCl-2/Bax interaction in human DMS53 cells harboring p53 mutant at 5 to 10 uM after 12 hrs by immunoprecipitation method; format: cell-based; settings: DMS-53
# [13] = target: T1, Induced myeloid leukemia cell differentiation protein Mcl-1; experiment: Inhibition of Mcl-1/Bim interaction in human DMS53 cells harboring p53 mutant at 5 to 10 uM after 12 hrs by immunoprecipitation method; format: cell-based; settings: DMS-53
# [14] = target: T1, Induced myeloid leukemia cell differentiation protein Mcl-1; experiment: Inhibition of Mcl-1/Bax interaction in human DMS53 cells harboring p53 mutant at 5 to 10 uM after 12 hrs by immunoprecipitation method; format: cell-based; settings: DMS-53
# [15] = target: T2, Apoptosis regulator Bcl-2; experiment: Binding affinity to 15N-labeled Bcl-2 (unknown origin) by 2D 1H-15N HSQC NMR spectroscopic method
# [16] = target: T3, E3 ubiquitin-protein ligase Mdm2 (Homo sapiens, UniProt Q00987); experiment: Displacement of FAM-p53TAD peptide from N-terminal 8x His-tagged human MDM2 (25 to 108 residues) expressed in Escherichia coli BL21 (DE3) after 30 mins by fluorescence polarization assay
# Target sequence in this assay (Q00987 whole entry, the tested form may be a part): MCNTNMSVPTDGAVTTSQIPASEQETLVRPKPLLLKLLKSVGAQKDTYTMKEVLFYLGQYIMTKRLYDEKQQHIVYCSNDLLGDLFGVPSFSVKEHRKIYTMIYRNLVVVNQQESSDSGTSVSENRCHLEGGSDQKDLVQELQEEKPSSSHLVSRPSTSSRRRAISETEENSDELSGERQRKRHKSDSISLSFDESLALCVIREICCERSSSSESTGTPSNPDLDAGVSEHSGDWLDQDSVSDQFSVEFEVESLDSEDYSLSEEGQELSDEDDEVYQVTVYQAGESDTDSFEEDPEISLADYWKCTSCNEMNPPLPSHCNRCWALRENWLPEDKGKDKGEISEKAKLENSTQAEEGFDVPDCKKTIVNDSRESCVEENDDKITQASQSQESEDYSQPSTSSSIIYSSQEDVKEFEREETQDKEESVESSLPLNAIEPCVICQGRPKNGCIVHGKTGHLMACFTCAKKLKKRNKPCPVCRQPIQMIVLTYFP
# [17] = target: T3, E3 ubiquitin-protein ligase Mdm2; experiment: Inhibition of MDM2-p53 interaction in human HCT116 p53+/+ cells assessed as upregulation of p53 expression at 5 to 10 uM after 12 hrs by immunoblotting method; format: cell-based; settings: HCT-116
# Target sequence in this assay (Q00987 whole entry, looked up, the tested form may be a part): as the sequence (Q00987 whole entry, the tested form may be a part) above
# [18] = target: T3, E3 ubiquitin-protein ligase Mdm2; experiment: Inhibition of MDM2-p53 interaction in human HCT116 p53+/+ cells assessed as upregulation of MDM2 expression at 5 to 10 uM after 12 hrs by immunoblotting method; format: cell-based; settings: HCT-116
# Target sequence in this assay (Q00987 whole entry, looked up, the tested form may be a part): as the sequence (Q00987 whole entry, the tested form may be a part) above
# [19] = target: T3, E3 ubiquitin-protein ligase Mdm2; experiment: Inhibition of MDM2-p53 interaction in human HCT116 p53+/+ cells assessed as upregulation of p21 expression at 5 to 10 uM after 12 hrs by immunoblotting method; format: cell-based; settings: HCT-116
# Target sequence in this assay (Q00987 whole entry, looked up, the tested form may be a part): as the sequence (Q00987 whole entry, the tested form may be a part) above
# HCT-116 [20] = experiment: Induction of apoptosis in human HCT116 p53+/+ cells after 48 hrs by Annexin V-FITC staining-based flow cytometric method; format: functional, cell-based
# DMS-53 [21] = experiment: Induction of apoptosis in human DMS53 cells harboring p53 mutant assessed as caspase-3 cleavage at 5 to 10 uM after 12 hrs by immunoblotting method; format: functional, cell-based
# DMS-53 [22] = experiment: Induction of apoptosis in human DMS53 cells harboring p53 mutant assessed as cytochrome c release at 5 to 10 uM after 12 hrs by immunoblotting method; format: functional, cell-based
# DMS-53 [23] = experiment: Induction of apoptosis in human DMS53 cells harboring p53 mutant assessed as PARP cleavage at 5 to 10 uM after 12 hrs by immunoblotting method; format: functional, cell-based
# [24] = target: T3, E3 ubiquitin-protein ligase Mdm2; experiment: Binding affinity to N-terminal 8x His-tagged human MDM2 (25 to 108 residues) expressed in Escherichia coli BL21 (DE3) by isothermal titration microcalorimetric method
# Target sequence in this assay (Q00987 whole entry, the tested form may be a part): as above
# [25] = target: T2, Apoptosis regulator Bcl-2; experiment: Binding affinity to N-terminal 8x His-tagged Bcl-2 (unknown origin) expressed in Escherichia coli BL21 (DE3) by isothermal titration microcalorimetric method
# [26] = target: T1, Induced myeloid leukemia cell differentiation protein Mcl-1; experiment: Binding affinity to N-terminal 8x His-tagged MCl-1 (unknown origin) expressed in Escherichia coli BL21 (DE3) by isothermal titration microcalorimetric method
# HCT-116 [27] = experiment: Effect on MDM2 expression in human HCT116 p53-/- cells at 10 to 20 uM after 12 hrs by immunoblotting method; format: functional, cell-based
# HCT-116 [28] = experiment: Effect on p53 expression in human HCT116 p53-/- cells at 10 to 20 uM after 12 hrs by immunoblotting method; format: functional, cell-based
# HCT-116 [29] = experiment: Effect on p21 expression in human HCT116 p53-/- cells at 10 to 20 uM after 12 hrs by immunoblotting method; format: functional, cell-based
# [30] = Upregulation of p53 mRNA expression in human HCT116 p53+/+ cells at 10 uM after 12 hrs by qPCR method; format: functional, cell-based; settings: HCT-116
# T1 sequence (Q07820 whole entry): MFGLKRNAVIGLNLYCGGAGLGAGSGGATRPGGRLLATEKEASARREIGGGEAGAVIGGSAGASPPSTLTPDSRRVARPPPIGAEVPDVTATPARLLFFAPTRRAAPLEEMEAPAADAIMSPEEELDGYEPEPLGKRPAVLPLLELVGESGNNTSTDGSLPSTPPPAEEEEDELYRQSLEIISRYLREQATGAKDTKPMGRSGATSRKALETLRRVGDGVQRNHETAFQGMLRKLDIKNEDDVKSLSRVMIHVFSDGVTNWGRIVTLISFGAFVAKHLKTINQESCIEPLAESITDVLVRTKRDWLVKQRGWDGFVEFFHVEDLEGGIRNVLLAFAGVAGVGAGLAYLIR
# T2 sequence (P10415 whole entry): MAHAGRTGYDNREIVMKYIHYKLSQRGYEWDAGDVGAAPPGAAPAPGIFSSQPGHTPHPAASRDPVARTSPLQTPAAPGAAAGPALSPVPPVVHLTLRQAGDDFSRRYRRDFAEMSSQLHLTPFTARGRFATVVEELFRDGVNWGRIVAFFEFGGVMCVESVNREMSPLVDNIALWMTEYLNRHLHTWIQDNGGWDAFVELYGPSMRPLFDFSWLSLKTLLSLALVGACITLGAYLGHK
Ki [1],Ki [2],Ki [16],Structure (SMILES),further results
> 10000 nM,> 10000 nM,–,COc1ccc(C2=N[C@@H](c3ccc(Cl)cc3)[C@@H](c3ccc(Cl)cc3)N2C(=O)N2CCNC(=O)C2)c(OC(C)C)c1 [NUTLIN-3],Activity [3]: 0.9%; Activity [4]: 29%; Activity [5]: 0.8%; Activity [6]: 49%; Activity [7]: 8%; Activity [8]: 41%; Activity [9]: 35%; Activity [10]: 34%; inhibition [11]: inactive; inhibition [12]: inactive; inhibition [13]: inactive; inhibition [14]: inactive; Kd [15]: 15 µM
404 nM,406 nM,689 nM,CCOc1ccc(-c2c(NC(=O)c3ccc(C(C)(C)C)cc3)c(C(=O)O)nn2-c2ccc(Oc3ccccc3)cc2)cc1,–
–,–,–,CN(C)CC[C@H](CSc1ccccc1)Nc1ccc(S(=O)(=O)NC(=O)c2ccc(N3CCN(Cc4ccccc4-c4ccc(Cl)cc4)CC3)cc2)cc1[N+](=O)[O-],Activity [3]: 7.1%; inhibition [17]: inactive; inhibition [18]: inactive; inhibition [19]: inactive; Activity [4]: 26%; Activity [5]: 6.4%; Activity [6]: 24%; Activity [7]: 40%; Activity [8]: 28%; Activity [9]: 32%; Activity [10]: 34%; Activity (HCT-116 [20]): Active; inhibition [11]: Active; inhibition [12]: Active; Activity (DMS-53 [21]): Active; Activity (DMS-53 [22]): Active; Activity (DMS-53 [23]): Active
> 10000 nM,> 10000 nM,4470 nM,CC(C)Oc1ccc(C(=O)Nc2c(C(=O)O)nn(-c3ccc(Oc4ccccc4)cc3)c2-c2ccc(OCc3ccccc3)cc2)cc1,–
4520 nM,5160 nM,4280 nM,COC(=O)c1nn(-c2ccc(Oc3ccccc3)cc2)c(-c2ccc(OC(C)C)cc2)c1NC(=O)c1ccc(OC(C)C)cc1,–
3800 nM,6090 nM,3260 nM,CCOc1ccc(-c2cc(C(=O)O)nn2-c2ccccc2)cc1,–
2600 nM,> 10000 nM,2190 nM,CC(C)Oc1ccc(C(=O)Nc2c(C(=O)O)nn(-c3ccc(C(C)C)cc3)c2-c2ccc(OCc3ccccc3)cc2)cc1,–
79 nM,56 nM,> 25000 nM,CC(C)c1ccc2/c(=N\c3ccc(Oc4ccccc4)cc3)c3cc(O)c(O)c(O)c3n(C(=O)c3ccc(C(C)(C)C)cc3)c2c1,–
226 nM,385 nM,616 nM,CC(C)c1ccc(-n2nc(C(=O)O)cc2-c2ccc(OCc3ccccc3)cc2)cc1,–
> 10000 nM,> 10000 nM,> 25000 nM,O=C(O)c1cc(-c2ccccc2)n(-c2ccccc2)n1,–
2390 nM,5250 nM,2140 nM,CC(C)Oc1ccc(-c2cc(C(=O)O)nn2-c2ccc(C(C)C)cc2)cc1,–
722 nM,1400 nM,422 nM,CC(C)COc1ccc(C(=O)Nc2c(C(=O)O)nn(-c3ccc(Oc4ccccc4)cc3)c2-c2ccc(OC(C)C)cc2)cc1,–
635 nM,855 nM,1130 nM,CCOc1ccc(-c2c(NC(=O)c3ccccc3)c(C(=O)O)nn2-c2ccc(Oc3ccccc3)cc2)cc1,–
393 nM,1040 nM,446 nM,CCOc1ccc(-c2c(NC(=O)c3ccc(OCC(C)C)cc3)c(C(=O)O)nn2-c2ccc(Oc3ccccc3)cc2)cc1,–
161 nM,140 nM,107 nM,CC(C)Oc1ccc(C(=O)Nc2c(C(=O)O)nn(-c3ccc(Oc4ccccc4)cc3)c2-c2ccc(OC(C)C)cc2)cc1,Kd [24]: 472 nM; Kd [25]: 290 nM; Kd [26]: 265 nM; Activity [3]: 6.8%; Activity (HCT-116 [27]): inactive; Activity (HCT-116 [28]): inactive; Activity (HCT-116 [29]): inactive; Activity [30]: inactive; Activity [4]: 30%; Activity [5]: 5.2%; Activity [6]: 47%; Activity [7]: 6%; Activity [8]: 40%; Activity [9]: 33%; Activity [10]: 31%; Activity (DMS-53 [21]): Active; Activity (DMS-53 [22]): Active; Activity (DMS-53 [23]): Active
3620 nM,7000 nM,2290 nM,CC(C)Oc1ccc(-c2cc(C(=O)O)nn2-c2ccccc2)cc1,–
247 nM,207 nM,24300 nM,Cc1ccc(/N=c2\c3ccc(C)cc3n(C(=O)c3ccc(C(C)(C)C)cc3)c3c(O)c(O)c(O)cc23)cc1,–
371 nM,932 nM,712 nM,CC(C)Oc1ccc(-c2cc(C(=O)O)nn2-c2ccc(Oc3ccccc3)cc2)cc1,–
81 nM,28 nM,301 nM,CCOc1ccc(-c2c(NC(=O)c3ccc(OC(C)C)cc3)c(C(=O)O)nn2-c2ccc(Oc3ccccc3)cc2)cc1,–
451 nM,694 nM,1030 nM,CCOc1ccc(-c2cc(C(=O)O)nn2-c2ccc(Oc3ccccc3)cc2)cc1,–

Structure (SMILES),Ki [1],Ki [2],Ki [16],further results
Cc1cc2c(C(C)C)c(O)c(O)c(C=O)c2c(O)c1-c1c(C)cc2c(C(C)C)c(O)c(O)c(C=O)c2c1O [GOSSYPOL],260 nM,–,> 25000 nM,–
O=C(O)c1cc(-c2ccc(OCc3ccccc3)cc2)n(-c2ccccc2)n1,> 10000 nM,> 10000 nM,19800 nM,–
CC(C)COc1ccc(-c2cc(C(=O)O)nn2-c2ccccc2)cc1,8110 nM,> 10000 nM,7420 nM,–
